Among the data in patent US20230348418A1, “ISOINDOLINONE COMPOUNDS” (Monte Rosa Therapeutics, Inc., priority 2021, published 2023) are IC50 values, retold here.

In this assay the target is T1, Full length wild-type cereblon CRBN (Homo sapiens, UniProt Q96SW2).
T1 construct: Full length wild-type cereblon CRBN (80.0 nM, 10 μL) was incubated in assay buffer
Nature of the assay: Fluorescence polarization (FP) assay, cereblon binding. The source says: Compound activity was monitored in a fluorescence polarization (FP) homogeneous assay using 1-[5-({2-[2-(2-{[2-(2,6-dioxopiperidin-3-yl)-1,3-dioxo-2,3-dihydro-1H-isoindol-4-yl]oxy}acetamido)ethoxy]ethyl}carbamoyl)pentyl]-3,3-dimethyl-2-[(1E,3E)-5-[(2E)-1,3,3-trimethyl-5-sulfo-2,3-dihydro-1H-indol-2-ylidene]penta-1,3-dien-1-yl]-3H-indol-1-ium-5-sulfonate as a fluorescent probe. Unless otherwise stated, all reagents were purchased from Sigma Aldrich. […] Full length wild-type cereblon CRBN (80.0 nM, 10 μL) was incubated in assay buffer containing 20 mM HEPES (pH 8.0), […], 0.5 mM TCEP and 0.05% Tween 20 in the presence or absence of compound (300 nL). Inhibitors were stored as 10 mM DMSO stocks in an inert environment (low humidity, dark, low oxygen, room temperature) using the Storage Pod System. […] Following incubation at room temperature for 30 min, the assay was initiated by dispensing the probe to a final concentration of […] (2.5 nL of a 20 μM stock) using the Echo E5XX. […] The FP signal was subsequently normalized to the no-compound control (i.e., DMSO). Analysis and IC50 values were derived using Dotmatics (Dotmatics UK) software.

Setting [1] is: bounds stated in the text lists b2059-b2061, read-out: IC50 value.
Where [2] appears, read: cereblon binding, class code, read-out: rFP IC50.
The mark [3] stands for this setting: IC50 value, bounds stated in the text lists b2059-b2061.
The mark [4] stands for this setting: rFP IC50 [nM], cereblon binding, class code.

Read-outs that look alike come from different tables or passages of the source.

T1 sequence (Q96SW2 whole entry): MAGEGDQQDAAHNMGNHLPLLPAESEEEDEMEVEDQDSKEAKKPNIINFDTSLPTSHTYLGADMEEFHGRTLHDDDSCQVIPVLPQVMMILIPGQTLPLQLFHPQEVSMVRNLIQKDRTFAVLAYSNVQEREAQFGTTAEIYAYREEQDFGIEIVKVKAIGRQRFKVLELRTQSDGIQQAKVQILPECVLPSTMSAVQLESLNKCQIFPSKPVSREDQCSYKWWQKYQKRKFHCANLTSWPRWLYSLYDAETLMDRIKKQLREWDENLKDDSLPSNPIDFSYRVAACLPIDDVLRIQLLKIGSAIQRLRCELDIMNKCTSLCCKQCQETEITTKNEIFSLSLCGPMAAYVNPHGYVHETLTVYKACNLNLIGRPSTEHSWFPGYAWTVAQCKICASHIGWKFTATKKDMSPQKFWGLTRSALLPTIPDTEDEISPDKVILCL

For the molecule `COc1ccccc1CNC(=O)OCc1ccc2c(c1)C(=O)N(C1CCC(=O)NC1=O)C2` (stereo not drawn) [Compound 97], the IC50 is, setting by setting: under setting [1], under 1700 nM; under setting [2], 500 to 1100 nM.
As to `O=C1CCC(N2Cc3ccc(COC(=O)N4CCC(Oc5ccccc5)C4)cc3C2=O)C(=O)N1` (stereo not drawn) [Compound 30], the IC50 under setting [1] is under 1100 nM.
`O=C1CCC(N2Cc3ccc(COC(=O)Nc4ccnc(-c5ccccc5)c4)cc3C2=O)C(=O)N1` (stereo not drawn) [Compound 149] showed an IC50 under setting [3] of under 1100 nM.
As to `O=C1CCC(N2Cc3ccc(COC(=O)NC4CCCCC4)cc3C2=O)C(=O)N1` (stereo not drawn) [Compound 28], the IC50 reads like this: under setting [1], under 1700 nM; under setting [2], 1100 to 1700 nM.
With `Cc1cc(Cl)c(NC(=O)OCc2ccc3c(c2)C(=O)N(C2CCC(=O)NC2=O)C3)cc1Cl` (stereo not drawn) [Compound 119], the IC50 reads like this: under setting [3], under 1100 nM; under setting [4], 500 to 1100 nM.
As to `CC(C)(C)c1cccc(NC(=O)OCc2ccc3c(c2)C(=O)N(C2CCC(=O)NC2=O)C3)c1` (stereo not drawn) [Compound 153, (2-(2,6-dioxopiperidin-3-yl)-3-oxoisoindolin-5-yl)methyl (3-(tert-butyl)phenyl)carbamate], the IC50 is under 1100 nM under setting [1] and 500 to 1100 nM under setting [2].
In the same order, the values of `Cc1c(CN2CCOCC2)cc(NC(=O)OCc2ccc3c(c2)C(=O)N(C2CCC(=O)NC2=O)C3)cc1OC(F)F` (stereo not drawn) [Compound 25] are under 1700 nM and 500 to 1100 nM.
The molecule `Cc1cc(NC(=O)OCc2ccc3c(c2)C(=O)N(C2CCC(=O)NC2=O)C3)cc(C)c1C#N` (stereo not drawn) [Compound 108] gave an IC50 under setting [3] of under 1100 nM.
For `CC(C)(C)c1ccc(NC(=O)OCc2ccc3c(c2)C(=O)N(C2CCC(=O)NC2=O)C3)nc1` (stereo not drawn) [Compound 131, (2-(2,6-dioxopiperidin-3-yl)-3-oxoisoindolin-5-yl)methyl (5-(tert-butyl)pyridin-2-yl)carbamate], the IC50 reads like this: under setting [1], under 1100 nM; under setting [2], 500 to 1100 nM.
On the same counts, the results for `Cc1c(Cl)cc(NC(=O)OCc2ccc3c(c2)C(=O)N(C2CCC(=O)NC2=O)C3)cc1CN1CC2CC1CO2` (stereo not drawn) [Compound 13] are under 1700 nM and 500 to 1100 nM.
Regarding `CC1CCCN1c1ccc(NC(=O)OCc2ccc3c(c2)C(=O)N(C2CCC(=O)NC2=O)C3)cn1` (stereo not drawn) [Compound 74], the IC50 under setting [1] is under 1100 nM.
The same measure, in the same setting: in the case of `O=C1CCC(N2Cc3ccc(COC(=O)Nc4ccc(N5CCCC(F)(F)C5)nc4)cc3C2=O)C(=O)N1` (stereo not drawn) [Compound 73] it was under 1100 nM.
On the same count and under the same terms, in the case of `CN1CCN(c2ccc(NC(=O)OCc3ccc4c(c3)C(=O)N(C3CCC(=O)NC3=O)C4)cn2)CC1` (stereo not drawn) [Compound 82] it was under 1100 nM.
As for `CN(C)C1CN(c2ccc(NC(=O)OCc3ccc4c(c3)C(=O)N(C3CCC(=O)NC3=O)C4)cn2)C1` (stereo not drawn) [Compound 89], the IC50 reads like this: under setting [1], under 1700 nM; under setting [2], 500 to 1100 nM.
As for `Cc1cc(NC(=O)OCc2ccc3c(c2)C(=O)N(C2CCC(=O)NC2=O)C3)cnc1-c1ccccc1` (stereo not drawn) [Compound 88], the 50% inhibitory concentration (IC50) reads like this: under setting [1], under 1700 nM; under setting [2], 500 to 1100 nM.
On the same counts, the results for `Cc1cc(NC(=O)OCc2ccc3c(c2)C(=O)N(C2CCC(=O)NC2=O)C3)cc(C)n1` (stereo not drawn) [Compound 7] are under 1700 nM and 500 to 1100 nM.
In the same order, the values of `O=C1CCC(N2Cc3ccc(COC(=O)Nc4ccccc4)cc3C2=O)C(=O)N1` (stereo not drawn) [Compound 138, (2-(2,6-dioxopiperidin-3-yl)-3-oxoisoindolin-5-yl)methyl phenylcarbamate] are under 1100 nM and 500 to 1100 nM.
For the molecule `O=C1CCC(N2Cc3ccc(COC(=O)Nc4ccc5c(c4)CCO5)cc3C2=O)C(=O)N1` (stereo not drawn) [Compound 66], the IC50 under setting [1] was under 1100 nM.
Still for that read-out and setting: next, `O=C1CCC(N2Cc3ccc(COC(=O)Nc4ccc(N5CCCC5)nc4)cc3C2=O)C(=O)N1` (stereo not drawn) [Compound 60]: under 1100 nM.
As to `Cc1ccc(NC(=O)OCc2ccc3c(c2)C(=O)N(C2CCC(=O)NC2=O)C3)cc1OC(F)F` (stereo not drawn) [Compound 24], the IC50 runs as follows: under setting [1], under 1700 nM; under setting [2], 500 to 1100 nM.
On the same counts, the results for `Cc1cc(C)c(NC(=O)OCc2ccc3c(c2)C(=O)N(C2CCC(=O)NC2=O)C3)cc1Cl` (stereo not drawn) [Compound 123, (2-(2,6-dioxopiperidin-3-yl)-3-oxoisoindolin-5-yl) methyl (5-chloro-2,4-dimethylphenyl)carbamate] are under 1100 nM and 500 to 1100 nM.
`Cc1cc(NC(=O)OCc2ccc3c(c2)C(=O)N(C2CCC(=O)NC2=O)C3)cc(C(C)(C)C)n1` (stereo not drawn) [Compound 118]: the IC50 runs as follows: under setting [3], under 1100 nM; under setting [4], 500 to 1100 nM.
Take `Cc1cc(NC(=O)OCc2ccc3c(c2)C(=O)N(C2CCC(=O)NC2=O)C3)cc(C)c1F` (stereo not drawn) [Compound 124, (2-(2,6-dioxopiperidin-3-yl)-3-oxoisoindolin-5-yl)methyl (4-fluoro-3,5-dimethylphenyl)carbamate]: the IC50 under setting [1] is under 1100 nM.
Consider `O=C1CCC(N2Cc3ccc(COC(=O)Nc4ccc5c(c4)OCC5)cc3C2=O)C(=O)N1` (stereo not drawn) [Compound 18], for which the 50% inhibitory concentration (IC50) by setting is: under setting [1], under 1700 nM; under setting [2], 500 to 1100 nM.
On to `COc1cc(NC(=O)OCc2ccc3c(c2)C(=O)N(C2CCC(=O)NC2=O)C3)cnc1-c1ccccc1` (stereo not drawn) [Compound 90], for which the IC50 runs as follows: under setting [1], under 1700 nM; under setting [2], 1100 to 1700 nM.
On the same counts, the results for `O=C1CCC(N2Cc3ccc(COC(=O)Nc4cc(CN5CCOCC5)cc(OC(F)F)c4)cc3C2=O)C(=O)N1` (stereo not drawn) [Compound 95] are under 1700 nM and 1100 to 1700 nM.
Take `CC1(c2ccc(NC(=O)OCc3ccc4c(c3)C(=O)N(C3CCC(=O)NC3=O)C4)cn2)CC1` (stereo not drawn) [Compound 152, (2-(2,6-dioxopiperidin-3-yl)-3-oxoisoindolin-5-yl)methyl (6-(1-methylcyclopropyl)pyridin-3-yl)carbamate]: the IC50 under setting [1] was under 1100 nM.
In the case of `CC1CCCCN1c1ccc(NC(=O)OCc2ccc3c(c2)C(=O)N(C2CCC(=O)NC2=O)C3)cn1` (stereo not drawn) [Compound 77], the IC50 reads like this: under setting [1], under 1700 nM; under setting [2], 500 to 1100 nM.
Consider `CCc1cc(NC(=O)OCc2ccc3c(c2)C(=O)N(C2CCC(=O)NC2=O)C3)ccn1` (stereo not drawn) [Compound 63], for which the IC50 under setting [1] is under 1100 nM.
Same read-out and setting: in the case of `O=C1CCC(N2Cc3ccc(COC(=O)NC45CC(c6ccccc6)(C4)C5)cc3C2=O)C(=O)N1` (stereo not drawn) [Compound 126, (2-(2,6-dioxopiperidin-3-yl)-3-oxoisoindolin-5-yl)methyl (3-phenylbicyclo[1.1.1]pentan-1-yl carbamate] it was under 1100 nM; in that of `O=C1CCC(N2Cc3ccc(COC(=O)Nc4ccc(N5CCC5)nc4)cc3C2=O)C(=O)N1` (stereo not drawn) [Compound 107], under 1100 nM.
In the case of `CC1(c2ccc(NC(=O)OCc3ccc4c(c3)C(=O)N(C3CCC(=O)NC3=O)C4)cc2)COC1` (stereo not drawn) [Compound 62], the IC50 by setting is: under setting [1], under 1700 nM; under setting [2], 500 to 1100 nM.
In the same order, the values of `Cc1c(Cl)cc(NC(=O)OCc2ccc3c(c2)C(=O)N(C2CCC(=O)NC2=O)C3)cc1OC1CCN(C)C1` (stereo not drawn) [Compound 68] are under 1700 nM and 500 to 1100 nM.
In the case of `CC(C)(C)c1ccc(NC(=O)OCc2ccc3c(c2)C(=O)N(C2CCC(=O)NC2=O)C3)c(F)c1` (stereo not drawn) [Compound 142, (2-(2,6-dioxopiperidin-3-yl)-3-oxoisoindolin-5-yl)methyl (4-(tert-butyl)-2-fluorophenyl)carbamate], the IC50 is under 1100 nM under setting [1] and 500 to 1100 nM under setting [2].
For `COc1ccc(Cl)cc1NC(=O)OCc1ccc2c(c1)C(=O)N(C1CCC(=O)NC1=O)C2` (stereo not drawn) [Compound 14], the concentration for half-maximal inhibition (IC50) under setting [1] is under 1700 nM and the IC50 under setting [2] was in the range of 1100 to 1700 nM.
For the molecule `O=C1CCC(N2Cc3ccc(COC(=O)Nc4cc(OC(F)(F)F)ccn4)cc3C2=O)C(=O)N1` (stereo not drawn) [Compound 59], the IC50 under setting [1] was under 1100 nM.
As to `O=C1CCC(N2Cc3ccc(COC(=O)N4CCCC4)cc3C2=O)C(=O)N1` (stereo not drawn) [Compound 26], the IC50 was under 1700 nM under setting [1] and 500 to 1100 nM under setting [2].
Consider `CCc1nscc1NC(=O)OCc1ccc2c(c1)C(=O)N(C1CCC(=O)NC1=O)C2` (stereo not drawn) [Compound 147], for which the IC50 was under 1100 nM under setting [1] and 500 to 1100 nM under setting [2].
In the same order, the values of `CC(NC(=O)OCc1ccc2c(c1)C(=O)N(C1CCC(=O)NC1=O)C2)c1ccccc1` (stereo not drawn) [Compound 102] are under 1700 nM and 500 to 1100 nM.
In the case of `O=C1CCC(N2Cc3ccc(COC(=O)Nc4ccc5c(c4)CCCO5)cc3C2=O)C(=O)N1` (stereo not drawn) [Compound 67], the IC50 was under 1700 nM under setting [1] and 500 to 1100 nM under setting [2].
On the same counts, the results for `O=C1CCC(N2Cc3ccc(COC(=O)Nc4cnc(N5CCCCC5)nc4)cc3C2=O)C(=O)N1` (stereo not drawn) [Compound 64] are under 1700 nM and 500 to 1100 nM.
On the same counts, the results for `Cc1cc(F)cc(NC(=O)OCc2ccc3c(c2)C(=O)N(C2CCC(=O)NC2=O)C3)c1` (stereo not drawn) [Compound 146, (2-(2,6-dioxopiperidin-3-yl)-3-oxoisoindolin-5-yl)methyl (3-fluoro-5-methylphenyl) carbamate] are under 1700 nM and 1100 to 1700 nM.
Regarding `CN1CCC(Oc2cc(Cl)cc(NC(=O)OCc3ccc4c(c3)C(=O)N(C3CCC(=O)NC3=O)C4)c2)C1` (stereo not drawn) [Compound 46], the IC50 under setting [1] is under 1100 nM.
`Cc1c(Cl)cc(NC(=O)OCc2ccc3c(c2)C(=O)N(C2CCC(=O)NC2=O)C3)cc1OC1CCNC1` (stereo not drawn) [Compound 44]: the IC50 was under 1700 nM under setting [1] and 500 to 1100 nM under setting [2].
For `COc1ccccc1-c1ccc(NC(=O)OCc2ccc3c(c2)C(=O)N(C2CCC(=O)NC2=O)C3)cn1` (stereo not drawn) [Compound 87], the IC50 is, setting by setting: under setting [1], under 1700 nM; under setting [2], 500 to 1100 nM.
